Laboratory results published in patent publication EP0052492A1, “3-Aryloxy-3-phenylpropylamines” (ELI LILLY AND COMPANY, priority 1980, dated 1982).
Read-outs that look alike come from different tables or passages of the source.

Key:
[1] = tested on: reduction in body temperature caused by apomorphine; assay: Apomorphine hypothermia antagonism test; format: in vivo, Mice; settings: for dose giving 50% antagonism of the hypothermia: compound intraperitoneally 30 minutes before apomorphine, temperature 30 minutes after
[2] = tested on: uptake of norepinephrine by synaptosomes isolated from the hypothalamus; assay: In vitro uptake of [3H]norepinephrine by rat hypothalamus synaptosomes (method of Wong and Bymaster); format: biochemical, male Sprague-Dawley rats; settings: for Uptake: [3H]norepinephrine uptake
Description: (§1) Monoamine uptake inhibition was measured by the in vitro method of Wong and Bymaster, cited above. In this method, male Sprague-Dawley rats weighing 110-150 g. were killed by decapitation, and the whole brains were removed and dissected. Crude preparations of synaptosomes were prepared from 10% homogenates of specific areas of the brain in 0.32M sucrose and lOmM glucose by differential centrifugation, according to the method of Gray and Whittaker, J. Anat. 96, 79 (1962).
(§2) Uptake of [^3H]monoamines by synaptosomes was determined as follows. A portion of a synaptosome preparation equivalent to 1 mg. of protein was incubated at 37°. for 5 minutes in 1 or 3 ml. of Krebs bicarbonate medium containing an additional 10mM of glucose, 0.1mM iproniazid, ImM ascorbic acid, 0.17mM ethylenediaminetetraacetic acid and [3H]monoamine at a specified concentration. The incubation mixtures were immediately diluted with 2 ml. of ice-chilled Krebs bicarbonate buffer containing 1mM non-radioactive monoamine. Synaptosomes were harvested by centrifugation, and rinsed with 5 ml. of cold buffer into counting vials containing 10 ml. of scintillation fluid. Radioactivity was measured with a liquid scintillation spectrometer, and the amount of [^3H]- monoamine accumulated by the synaptosomes at 4° represented the background count and was subtracted from the results obtained on all samples.

[3] = tested on: uptake of [3H]-norepinephrine, hypothalamus; assay: Inhibition of norepinephrine uptake in hypothalamus homogenate after dosing live rats; format: in vivo, male Sprague-Dawley rats; settings: for inhibition at 10 mg/kg / ED50: Rattus norvegicus; for ED50: ip, read-out: ED50 value
Description: The test animals were male Sprague-Dawley rats weighing 110-150 g., which were treated in groups of 5 with the test compound at the doses and times specified, and were killed by decapitation. The hypothalamus was removed from each brain, and homogenized in a medium as described in the in vitro test above. Aliquots of the homogenate containing 1 mg. of protein were used; the incubation times, medium and temperature were as described in the test above.
The data were expressed another way by plotting the blood level of the compound against the rate of [^3H]norepinephrine uptake.

[4] = tested on: uptake of norepinephrine by synaptosomes of the hypothalamus after 6-hydroxydopamine; assay: Protection against 6-hydroxydopamine-induced loss of norepinephrine uptake; format: in vivo, male Sprague-Dawley rat; settings: Rattus norvegicus, ip; for ED50: antagonism of 6-hydroxydopamine, intraperitoneally
Excerpt: The neurotoxic agent 6-hydroxydopamine has the property of destroying norepinephrinergic terminals of the central and peripheral nervous systems.

[5] = target: strips of fresh guinea pig trachea, acetylcholine as the agonist; assay: Anticholinergic activity in guinea pig tracheal strips, acetylcholine as agonist (Schild plot); format: cell-based; settings: for negative logarithm of the dissociation constant: acetylcholine as agonist, guinea pig trachea
Description: The test was carried out on 2mm. x 30mm. strips of fresh guinea pig trachea. The strips were suspended in 10 ml. organ baths containing physiological salt solution at 37.5°, and aerated with a mixture of 5% carbon dioxide and 95% oxygen. The tracheal strips were attached to isometric transducers connected to an automatic recorder, and were allowed to equilibrate under a tension of 2 g. for at least 2 hours before addition of drug. Dose-response curves were obtained by adding increasing concentrations of drug to the bath, in approximately 3-fold increments. […] Consecutive dose-response curves on a given tissue were always separated by 1 hour of washing with fresh physiological salt solution to assure maximum washout of drug.
Dissociation constants were determined using acetylcholine as the agonist. In this method, the ratio of concentrations of acetylcholine giving equal responses in the presence and in the absence of the compound of this invention was determined at various concentrations of the compound. […] The method of calculation is clearly discussed by Arunlakshana and Schild, Some Quantitative Uses of Drug Antagonists, Brit. J. Pharmacol. 14 48-58 (1959).

[6] = tested on: mice; settings: mouse, in vivo
[7] = tested on: mice; assay: Acute toxicity in mice; settings: injected in mice
[8] = Oral absorption (statement only); settings: in vivo
[9] = tested on: canine cardiac conducting tissue, sometimes called Purkinje fibers; settings: dog
Excerpt: Another test applied to the compound was one designed to detect electrophysiological effects in canine cardiac conducting tissue, sometimes called Purkinje fibers.

[10] = tested on: serotonin uptake, synaptosomes of cerebral cortex; assay: In vitro uptake of [3H]serotonin by cerebral cortex synaptosomes; format: biochemical, male Sprague-Dawley rats
Description: as §1
as §2, with “The incubation mixtures were immediately diluted with 2 ml. of ice-chilled Krebs bicarbonate buffer containing 1mM non-radioactive monoamine. Synaptosomes were harvested by centrifugation, and rinsed with 5 ml. of cold buffer into counting vials containing 10 ml. of scintillation fluid.” left out
(§3) The effect of the compound of this invention on the uptake of [^3H]serotonin and [^3H]dopamine was also determined, by the same test method, using synaptosomes isolated from the corpus striatum for the determination of dopamine uptake and synaptosomes of cerebral cortex for serotonin uptake.

[11] = tested on: dopamine uptake, synaptosomes isolated from the corpus striatum; assay: In vitro uptake of [3H]dopamine by corpus striatum synaptosomes; format: biochemical, male Sprague-Dawley rats
Description: as §1
as §2, with “The incubation mixtures were immediately diluted with 2 ml. of ice-chilled Krebs bicarbonate buffer containing 1mM non-radioactive monoamine. Synaptosomes were harvested by centrifugation, and rinsed with 5 ml. of cold buffer into counting vials containing 10 ml. of scintillation fluid.” left out
as §3

[12] = 4 h, four hours after administration, read-out: inhibition of norepinephrine uptake
[13] = inhibition of norepinephrine uptake, intraperitoneally, 1 hour before sacrifice
[14] = duration experiment up to 4 hours, read-out: maximum inhibition of norepinephrine uptake

Compound: CNCC[C@H](Oc1ccccc1C)c1ccccc1 [(+)-enantiomer, reference compound]
- dose giving 50% antagonism of the hypothermia [1]: 2.26 mg/kg
- antagonism ([1]; compound orally at 3 mg./kg., apomorphine intraperitoneally): 50%
- IC50 ([2]; norepinephrine uptake, hypothalamus synaptosomes, read-out: IC50 value, concentration which inhibited half of the uptake activity): 40 nM
- inhibition at 10 mg/kg [3, 12]: 35%
- ED50 [3, 13]: 6.3 mg/kg
- inhibition at 10 mg/kg [3, 14]: 70%
- inhibition at 10 mg/kg ([3]; second hour after administration, read-out: inhibition of norepinephrine uptake): 50%
- ED50 [4]: ~22 mg/kg
- negative logarithm of the dissociation constant [5]: 6.04
- time after administration at which mice were still stimulated [6]: ≥ 5 h
- doses at which no deaths occurred [7]: below 90 mg./kg.

Compound: CNCCC(Oc1ccccc1C)c1ccccc1.Cl (racemic) [racemate, N-methyl-3-(2-methylphenoxy)-3-phenylpropylamine, hydrochloride, reference compound]
- ED50 [3]: 3.4 mg/kg
- negative logarithm of the dissociation constant [5]: 5.72

Compound: CNCCC(Oc1ccccc1C)c1ccccc1.Cl (single isomer, unassigned; (-)) [compound of this invention, (-)-N-methyl-3-(2-methylphenoxy)-3-phenylpropylamine, hydrochloride]
- dose giving 50% antagonism of the hypothermia [1]: 0.16 mg/kg
- highest antagonism ([1]; compound orally at 1 mg./kg., apomorphine intraperitoneally): 35%
- Uptake ([2]; concentration 1 x 10^-9M, control without drug 3.9 x 10^-12 moles/mg. protein): 3.1 x 10^-12moles/mg. protein
- Uptake ([2]; concentration 2 x 10^-9M, control 3.9): 2.2 x 10^-12moles/mg. protein
- Uptake ([2]; concentration 3 x 10^-9M, control 3.9): 3.1 x 10^-12moles/mg. protein
- Uptake ([2]; concentration 10 x 10^-9M, control 3.9): 1.4 x 10^-12moles/mg. protein
- Uptake ([2]; concentration 30 x 10^-9M, control 3.9): 1.0 x 10^-12moles/mg. protein
- Uptake ([2]; concentration 50 x 10^-9M, control 3.9): 0.9 x 10^-12moles/mg. protein
- Uptake ([2]; concentration 100 x 10^-9M, control 3.9): 0.8 x 10^-12moles/mg. protein
- potency in inhibiting the uptake of norepinephrine relative to the (+)-enantiomer ([2]; compared with the corresponding (+)-enantiomer): about 10 times
- uptake of [3H]-norepinephrine reduced from the control value ([3]; 1 mg./kg. intraperitoneally, 1 hour before sacrifice): 35%
- uptake of [3H]-norepinephrine reduced from the control value ([3]; 3 mg./kg. intraperitoneally, 1 hour before sacrifice): 58%
- uptake of [3H]-norepinephrine reduced from the control value ([3]; 10 mg./kg. intraperitoneally, 1 hour before sacrifice): 68%
- inhibition at 10 mg/kg [3, 12]: ~65%
- ED50 [3, 13]: 2.1 mg/kg
- inhibition at 10 mg/kg [3, 14]: > 80%
- ED50 concentration in blood plasma ([3]; blood level plotted against rate of [3H]norepinephrine uptake): about 14 x 10^-9 g./ml.
- oral absorption [8]: orally absorbed
- concentration that suppressed the rate of rise and duration of the action potential [9]: 8 µM
- inhibition at 1 mg/kg ([4]; 1 mg./kg. intraperitoneally before 6-hydroxydopamine, read-out: reduced the inhibition of uptake (by 6-hydroxydopamine)): 15%
- inhibition at 3 mg/kg ([4]; 3 mg./kg. intraperitoneally before 6-hydroxydopamine, read-out: reduced the inhibition of uptake (by 6-hydroxydopamine)): 43%
- inhibition at 6 mg/kg ([4]; 6 mg./kg. intraperitoneally before 6-hydroxydopamine, read-out: reduced the inhibition of uptake (by 6-hydroxydopamine)): 70%
- ED50 [4]: 4 mg/kg
- IC50 [10]: 1000 nM
- anticholinergic activity relative to the (+)-enantiomer ([5]; fraction of the activity of the (+)-enantiomer): 1/6
- anticholinergic activity relative to the racemate ([5]; fraction of the activity of the racemate): 1/3
- IC50 [11]: 4000 nM
- doses at which no deaths occurred [7]: below 90 mg./kg.
